We go through two compounds from article PMC11082943, “Rpt5-Derived Analogs Stimulate Human Proteasome Activity in Cells and Degrade Proteins Forming Toxic Aggregates in Age-Related Diseases” (International Journal of Molecular Sciences, 2024).

One data set has as its system HEK293T cells. It counts as in vitro ADME, human. The source says:
One of the obstacles in the development of peptide drugs is their low cell permeability. To evaluate if the peptide-based proteasome activators can cross the cell membrane, we synthesized an analog of peptide 7; labeled the ε-amine group of the N-terminal lysine residue with a fluorescent dye, 5/6-carboxytetramethylrhodamine (TAMRA); and used confocal microscopy to detect its entry into cells. […] Therefore, 7 was combined with the HIV-1 TAT protein-derived, membrane-penetrating peptide sequence GRKKRRQRRR (TAT 48–57), separated by the 20S proteasome recognition sequence, LLVY.
TAMRA fluorescent tags were attached to the N-terminal […] group of the lysine residue of compound 7 and the ε-amino group of the corresponding lysine residue in compound TAT-7 before the final deprotection and cleavage of the compounds from the solid support. To achieve the selective attachment of the label to the proper ε-amino group, the Fmoc-Lys(Mtt)-OH was used in this position during peptide elongation. […]
Human embryonic kidney cells (HEK293T, a generous gift of Prof. Grzegorz Węgrzyn, Faculty of Biology, University of Gdańsk, Gdańsk, Poland) were maintained in Dulbecco’s Modified Eagle Medium (DMEM) supplemented with 10% Fetal Bovine Serum (FBS) and penicillin/streptomycin (100 units/mL/100 µg/mL), at 37 °C with 5% CO2. […] The images were merged, and the colocalization of the dye emission was analyzed.

The test system of data set [1] is T1, proteasome in HEK293T cells.
T1 construct: HEK293T cells were seeded in black 96-well plates; endogenous in cells; host or cells: HEK293T
As to the kind of experiment: 20S activity in cellulo (TAS3 assay). It counts as cell-based, human. As to conditions: 10 µM TAS3 in KRBH buffer, 30 min preincubation with compound, 37 °C, linear regression of last 60 min, triplicate, Btz 10 µM.
Protocol: HEK293T cells were seeded in black 96-well plates at 7 × 10^3 cells/well and incubated in DMEM supplemented with 10% FBS and penicillin/streptomycin (100 units/mL/100 µg/mL) at 37 °C with 5% CO2. […] After this time, the cells were treated with the tested peptides/peptidomimetics (1–50 µM in medium). Each sample was prepared in triplicate. The plates were incubated for an additional 30 min. Subsequently, the medium was removed, and 100 µL of 10 µM TAS3 in Krebs-Ringer Bicarbonate (KRBH) buffer, containing the tested modulator, was added to the wells. The fluorescence intensity was monitored every 2 min over a 90 min period at 37 °C using a Tecan Infinite M200 Pro plate reader (Tecan Trading AG, Männedorf, Switzerland) with the excitation and emission wavelengths set at 485 nm and 535 nm, respectively. A linear regression analysis was performed for the last 60 min of the measurement. Any increase or decrease in activity of the 20S was compared to that of the control (cells incubated with TAS3 probe in KRBH buffer) and calculated based on the change in fluorescence units per time [40]. To determine statistical significance, ordinary one-way ANOVA was used.

No end group written: not given here.

In the case of KKKANLQYYA [compound 7], the “cell permeability / cellular internalization (result in words)” value in the data set with HEK293T cells is “only slightly cell permeable”. Consider `CC(C)C[C@H](NC(=O)[C@H](Cc1ccccc1)NC(=O)c1cnccn1)B(O)O` [Btz, bortezomib], for which the “ΔRFU/min (change in fluorescence units per minute, TAS3 probe)” value in data set [1] was found to be 3.7 RFU/min.
